According to patent publication US20260000692A1, “Substituted N-(Pyridin-2-yl)Acetamide Derivatives as CDK12/13 Inhibitors” (Aurigene Oncology Limited, priority 2022, published 2026):

Biological target: CDK12 (Homo sapiens, UniProt Q9NYV4)
Assay: Biochemical assay for CDK12 (LANCE TR-FRET, IC50 determination)
Settings: for IC50: CDK12, IC50 class, read-out: IC50 μM (in range); for inhibition at 10 µM: compound at 10 μM, read-out: CDK12 % Inhibition @ 10 μM
Experimental: Biochemical Assay for CDK12 (IC50 Determination):
The inhibitory activity of the test compounds was assessed by the LANCE TR-FRET assay, which detects the ATP-dependent phosphorylation of an ULight-4E-BP1 (Thr37/Thr46) substrate peptide (100 nM) by CDK12 (30 nM). Briefly, the enzyme reaction was run in reaction buffer (25 mM HEPES (pH 7.5), 10 mM MgCl2, […], 0.01% Triton x, 1 mM DTT). The assay was performed in 384-well plate format. The end concentration of the ATP substrate was […], and that of the ULight-4E-BP1 (Thr37/Thr46) substrate peptide was 100 nM, and of CDK12 was 30 nM. Pre-incubation of the compound and enzyme was performed for 60 min at room temperature. After 60 min incubation at room temperature, the reaction was terminated by the addition of 40 mM EDTA and 0.5 nM Eu-labeled anti-phospho-eIF4E-binding protein (Thr37/46) antibody in LANCE detection buffer. Time-resolved fluorescence (excitation, 320 nm; emission donor, 615 nm; emission acceptor, 665 nm) was monitored by using 2030 multilabel reader Victor5 (PerkinElmer). The Fluorescence emission of the samples were measured and the ratio was plotted against the compound concentration to generate the dose response curve. The IC50 values were derived by fitting a sigmoidal dose-response curve to a plot of assay readout over inhibitor concentration. All fits were computed with the program Prism 5.03 (Graph Pad Software, San Diego, CA). The % inhibition values at […] were calculated with respect to enzyme activity.

Chain of CDK12 (Q9NYV4 whole entry): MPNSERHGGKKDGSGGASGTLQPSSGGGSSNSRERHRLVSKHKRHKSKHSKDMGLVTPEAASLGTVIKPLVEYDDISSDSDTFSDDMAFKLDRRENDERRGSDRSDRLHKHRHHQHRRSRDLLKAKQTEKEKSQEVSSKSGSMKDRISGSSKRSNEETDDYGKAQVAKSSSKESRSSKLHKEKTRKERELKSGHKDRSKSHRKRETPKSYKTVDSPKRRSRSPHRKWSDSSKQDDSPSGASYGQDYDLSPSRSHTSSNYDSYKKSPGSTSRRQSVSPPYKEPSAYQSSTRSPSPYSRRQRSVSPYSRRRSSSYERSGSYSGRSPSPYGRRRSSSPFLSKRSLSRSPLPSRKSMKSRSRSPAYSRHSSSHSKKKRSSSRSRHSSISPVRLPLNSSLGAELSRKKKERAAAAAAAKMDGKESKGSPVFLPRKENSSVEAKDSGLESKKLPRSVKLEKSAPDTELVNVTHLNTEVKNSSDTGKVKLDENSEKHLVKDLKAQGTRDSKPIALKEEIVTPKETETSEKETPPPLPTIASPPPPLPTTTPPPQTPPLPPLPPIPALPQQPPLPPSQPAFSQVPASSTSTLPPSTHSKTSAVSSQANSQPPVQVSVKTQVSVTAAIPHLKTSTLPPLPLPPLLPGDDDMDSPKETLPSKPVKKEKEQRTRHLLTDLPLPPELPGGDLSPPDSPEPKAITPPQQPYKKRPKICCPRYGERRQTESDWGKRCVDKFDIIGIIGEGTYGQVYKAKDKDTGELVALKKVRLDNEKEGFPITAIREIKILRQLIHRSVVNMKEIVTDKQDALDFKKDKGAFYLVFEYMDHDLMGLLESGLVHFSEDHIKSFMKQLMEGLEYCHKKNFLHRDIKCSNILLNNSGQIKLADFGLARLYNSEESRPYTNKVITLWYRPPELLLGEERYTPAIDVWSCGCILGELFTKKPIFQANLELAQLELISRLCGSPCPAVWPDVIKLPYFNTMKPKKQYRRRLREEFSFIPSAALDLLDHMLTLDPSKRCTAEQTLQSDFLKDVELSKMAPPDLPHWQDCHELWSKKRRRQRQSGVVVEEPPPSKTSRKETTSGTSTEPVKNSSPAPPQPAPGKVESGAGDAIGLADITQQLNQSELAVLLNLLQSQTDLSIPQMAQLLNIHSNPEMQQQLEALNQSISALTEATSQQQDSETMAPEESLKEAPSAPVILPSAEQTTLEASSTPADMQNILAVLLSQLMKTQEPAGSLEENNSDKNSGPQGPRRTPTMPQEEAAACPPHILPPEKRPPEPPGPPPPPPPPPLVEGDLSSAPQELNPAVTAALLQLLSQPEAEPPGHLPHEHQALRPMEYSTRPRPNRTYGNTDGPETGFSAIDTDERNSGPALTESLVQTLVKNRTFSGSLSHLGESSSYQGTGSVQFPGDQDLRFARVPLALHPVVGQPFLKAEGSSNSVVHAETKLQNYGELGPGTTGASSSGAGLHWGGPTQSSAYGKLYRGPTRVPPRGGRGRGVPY
Chain of CDK12 (O75909 whole entry partner): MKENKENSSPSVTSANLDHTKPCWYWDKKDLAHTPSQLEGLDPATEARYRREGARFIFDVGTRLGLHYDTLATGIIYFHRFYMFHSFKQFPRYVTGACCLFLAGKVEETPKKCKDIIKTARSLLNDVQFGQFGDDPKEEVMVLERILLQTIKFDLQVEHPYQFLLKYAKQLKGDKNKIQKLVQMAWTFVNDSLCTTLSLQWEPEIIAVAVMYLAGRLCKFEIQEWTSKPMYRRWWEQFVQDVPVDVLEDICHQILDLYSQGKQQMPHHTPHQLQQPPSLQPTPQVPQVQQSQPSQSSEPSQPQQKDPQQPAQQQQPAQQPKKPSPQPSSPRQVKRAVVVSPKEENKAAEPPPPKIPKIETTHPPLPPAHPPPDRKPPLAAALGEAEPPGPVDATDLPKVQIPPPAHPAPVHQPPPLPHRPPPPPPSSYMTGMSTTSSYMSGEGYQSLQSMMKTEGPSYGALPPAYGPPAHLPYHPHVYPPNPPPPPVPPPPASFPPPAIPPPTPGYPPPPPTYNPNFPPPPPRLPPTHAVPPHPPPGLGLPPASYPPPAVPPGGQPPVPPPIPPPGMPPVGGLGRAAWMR

SMILES | IC50 [µM] | inhibition at 10 µM [%]
CC(CN(C)C)Oc1cc(NC(=O)Cc2ccc(C3=CCN(C#N)CC3)nc2)ncc1Cl (stereo not drawn) [Compound 31, N-(5-chloro-4-((1-(dimethylamino)propan-2-yl)oxy)pyridin-2-yl)-2-(1′-cyano-1′,2′,3′,6′-tetrahydro-[2,4′-bipyridin]-5-yl)acetamide] | < 0.01 | 89
CN1CCC[C@@H](Oc2cc(NC(=O)Cc3ccc(C4=CCN(C#N)CC4)nc3)ncc2Cl)C1 [Compound 32, (R)-N-(5-chloro-4-((1-methylpiperidin-3-yl)oxy)pyridin-2-yl)-2-(1′-cyano-1′,2′,3′,6′-tetrahydro-[2,4′-bipyridin]-5-yl)acetamide] | < 0.01 | 84
CN1CCC[C@H](Oc2cc(NC(=O)Cc3ccc(C4=CCN(C#N)CC4)nc3)ncc2Cl)C1 [Compound 33, (S)-N-(5-chloro-4-((1-methylpiperidin-3-yl)oxy)pyridin-2-yl)-2-(1′-cyano-1′,2′,3′,6′-tetrahydro-[2,4′-bipyridin]-5-yl)acetamide] | < 0.01 | 88
COc1cc(NC(=O)Cc2ccc(C3=CCCN(C#N)C3)nc2)ncc1Cl [Compound 34, N-(5-chloro-4-methoxypyridin-2-yl)-2-(1′-cyano-1′,2′,5′,6′-tetrahydro-[2,3′-bipyridin]-5-yl)acetamide] | < 0.01 | 91
COC[C@H](C)Oc1cc(NC(=O)Cc2ccc(C3=CCCN(C#N)C3)nc2)ncc1Cl [Compound 35, (S)-N-(5-chloro-4-((1-methoxypropan-2-yl)oxy)pyridin-2-yl)-2-(1′-cyano-1′,2′,5′,6′-tetrahydro-[2,3′-bipyridin]-5-yl)acetamide] | < 0.01 | 95
COC[C@@H](C)Oc1cc(NC(=O)Cc2ccc(C3=CCCN(C#N)C3)nc2)ncc1Cl [Compound 36, (R)-N-(5-chloro-4-((1-methoxypropan-2-yl)oxy)pyridin-2-yl)-2-(1′-cyano-1′,2′,5′,6′-tetrahydro-[2,3′-bipyridin]-5-yl)acetamide] | < 0.01 | 95
CN1CCC(Oc2cc(NC(=O)Cc3ccc(C4=CCCN(C#N)C4)nc3)ncc2Cl)CC1 [Compound 37, N-(5-chloro-4-((1-methylpiperidin-4-yl)oxy)pyridin-2-yl)-2-(1′-cyano-1′,2′,5′,6′-tetrahydro-[2,3′-bipyridin]-5-yl)acetamide] | < 0.01 | 94
CN1CC[C@@H](Oc2cc(NC(=O)Cc3ccc(C4=CCCN(C#N)C4)nc3)ncc2Cl)C1 [Compound 38, (R)-N-(5-chloro-4-((1-methylpyrrolidin-3-yl)oxy)pyridin-2-yl)-2-(1′-cyano-1′,2′,5′,6′-tetrahydro-[2,3′-bipyridin]-5-yl)acetamide] | < 0.01 | 88
CN1CC[C@H](Oc2cc(NC(=O)Cc3ccc(C4=CCCN(C#N)C4)nc3)ncc2Cl)C1 [Compound 39, (S)-N-(5-chloro-4-((1-methylpyrrolidin-3-yl)oxy)pyridin-2-yl)-2-(1′-cyano-1′,2′,5′,6′-tetrahydro-[2,3′-bipyridin]-5-yl)acetamide] | 0.01 to 0.1 | 98
N#CN1CCC=C(c2ccc(CC(=O)Nc3cc(O[C@@H]4CCOC4)c(Cl)cn3)cn2)C1 [Compound 40, (R)-N-(5-chloro-4-((tetrahydrofuran-3-yl)oxy)pyridin-2-yl)-2-(1′-cyano-1′,2′,5′,6′-tetrahydro-[2,3′-bipyridin]-5-yl)acetamide] | < 0.01 | 91
N#CN1CCC=C(c2ccc(CC(=O)Nc3cc(O[C@H]4CCOC4)c(Cl)cn3)cn2)C1 [Compound 41, (S)-N-(5-chloro-4-((tetrahydrofuran-3-yl)oxy)pyridin-2-yl)-2-(1′-cyano-1′,2′,5′,6′-tetrahydro-[2,3′-bipyridin]-5-yl)acetamide] | < 0.01 | 96
CC(CN(C)C)Oc1cc(NC(=O)Cc2ccc(C3=CCCN(C#N)C3)nc2)ncc1Cl (stereo not drawn) [Compound 42, N-(5-chloro-4-((1-(dimethylamino)propan-2-yl)oxy)pyridin-2-yl)-2-(1′-cyano-1′,2′,5′,6′-tetrahydro-[2,3′-bipyridin]-5-yl)acetamide] | > 0.1 | 116
N#CN1CCC=C(c2ccc(CC(=O)Nc3cc(OC4CCCOC4)c(Cl)cn3)cn2)C1 (stereo not drawn) [Compound 43, N-(5-chloro-4-((tetrahydro-2H-pyran-3-yl)oxy)pyridin-2-yl)-2-(1′-cyano-1′,2′,5′,6′-tetrahydro-[2,3′-bipyridin]-5-yl)acetamide] | < 0.01 | 87
CN1CCC[C@@H](Oc2cc(NC(=O)Cc3ccc(C4=CCCN(C#N)C4)nc3)ncc2Cl)C1 [Compound 46, (R)-N-(5-chloro-4-((1-methylpiperidin-3-yl)oxy)pyridin-2-yl)-2-(1′-cyano-1′,2′,5′,6′-tetrahydro-[2,3′-bipyridin]-5-yl)acetamide] | < 0.01 | 88
CN1CCC[C@H](Oc2cc(NC(=O)Cc3ccc(C4=CCCN(C#N)C4)nc3)ncc2Cl)C1 [Compound 47, (S)-N-(5-chloro-4-((1-methylpiperidin-3-yl)oxy)pyridin-2-yl)-2-(1′-cyano-1′,2′,5′,6′-tetrahydro-[2,3′-bipyridin]-5-yl)acetamide] | 0.01 to 0.1 | 85
COc1cc(NC(=O)C(C)c2ccc(C3=CCCN(C#N)C3)nc2)ncc1Cl (stereo not drawn) [Compound 48, N-(5-chloro-4-methoxypyridin-2-yl)-2-(1′-cyano-1′,2′,5′,6′-tetrahydro-[2,3′-bipyridin]-5-yl)propanamide] | < 0.01 | 90
COc1cc(NC(=O)C(C)c2ccc(C3=CCN(C#N)CC3)nc2)ncc1Cl (stereo not drawn) [Compound 51, N-(5-chloro-4-methoxypyridin-2-yl)-2-(1′-cyano-1′,2′,3′,6′-tetrahydro-[2,4′-bipyridin]-5-yl)propanamide] | < 0.01 | 102
CN1CCCC1COc1cc(NC(=O)Cc2ccc(C3=CCN(C#N)CC3)nc2)ncc1Cl (stereo not drawn) [Compound 54, N-(5-chloro-4-((1-methylpyrrolidin-2-yl)methoxy)pyridin-2-yl)-2-(1′-cyano-1′,2′,3′,6′-tetrahydro-[2,4′-bipyridin]-5-yl)acetamide] | > 0.1 | 77
CN1CCCC1COc1cc(NC(=O)Cc2ccc(C3=CCCN(C#N)C3)nc2)ncc1Cl (stereo not drawn) [Compound 55, N-(5-chloro-4-((1-methylpyrrolidin-2-yl)methoxy)pyridin-2-yl)-2-(1′-cyano-1′,2′,5′,6′-tetrahydro-[2,3′-bipyridin]-5-yl)acetamide] | > 0.1 | 86
CNC(=O)C(C)Oc1cc(NC(=O)Cc2ccc(C3=CCCN(C#N)C3)nc2)ncc1Cl (stereo not drawn) [Compound 56, 2-((5-chloro-2-(2-(1′-cyano-1′,2′,5′,6′-tetrahydro-[2,3′-bipyridin]-5-yl)acetamido)pyridin-4-yl)oxy)-N-methylpropanamide] | < 0.01 | 100
COc1cc(NC(=O)Cc2ccc(C3CCN(C#N)CC3)nc2)ncc1Cl [Compound 59, N-(5-chloro-4-methoxypyridin-2-yl)-2-(6-(1-cyanopiperidin-4-yl)pyridin-3-yl)acetamide] | < 0.01 | 89
